Measurements: US20020061346A1, “FOOD COMPOSITION” (priority 1998, published 2002)

Assay: Post-prandial study: carotenoid levels in triglyceride-rich blood fractions after a tomato-based meal with plant sterols
Assay type: in vivo, human
Conditions: 20 healthy adult volunteers; single meal with 130 g chunky tomato sauce (5.2 mg lycopene, 2.2 mg beta-carotene) and 2.2 g plant sterols; blood samples over 8 hours; pre-meal level taken as zero
Procedure: A post-prandial study was undertaken, in which 20 healthy, adult, human volunteers, 10 male, 10 female (age 30-65) were provided with an early-morning tomato-based meal, after which at regular intervals and for a period of 8 hours blood samples were taken. In the triglyceride-rich fractions (mainly consisting of chylomicrons that carry the digested fat and fat-soluble components from the intestine to the liver) of those blood samples the levels of lycopene, beta-carotene and also vitamin A were determined (using straight-phase HPLC analysis using a nucleosil cyanyl-bonded column). The levels of vitamin A (measured as retinyl palmitate) and beta-carotene can be taken together as a measure for beta-carotene uptake, as during absorption (or shortly thereafter) beta-carotene is partly converted into vitamin A. The integrated post-prandial response can then be used to estimate the bioavailability of beta-carotene and lycopene from a meal.
The meal consisted of 200 g of cooked macaroni, 130 g of chunky tomato sauce (containing more chunks of tomato flesh than most commercial tomato sauces) made of yellow, orange and super red varieties, 80 g of lean cooked ham (gammon), 20 g of white bread, and 11.6 g of sunflower oil (stripped, i.e. low in antoixidants) and 2.2 g of plansterols. […]

Row | post-prandial response (level in triglyceride-rich blood fractions, FIG. 1) | Compound
1 | clear post-prandial response | CC1=C(/C=C/C(C)=C/C=C/C(C)=C/C=C/C=C(C)/C=C/C=C(C)/C=C/C2=C(C)CCCC2(C)C)C(C)(C)CCC1 [beta-carotene]
2 | clear post-prandial response | CC(C)=CCC/C(C)=C/C=C/C(C)=C/C=C/C(C)=C/C=C/C=C(C)/C=C/C=C(C)/C=C/C=C(\C)CCC=C(C)C [lycopene]
